Results as given in US9999616B2 (ZENITH EPIGENETICS LTD., priority 2013, dated 2018).
pIC50: −log10 of the molar value.

Experiments:
[1] = test system: c-myc in Human AML MV4-11 cells; experiment: Inhibition of cMYC expression (mRNA, real-time PCR) in MV4-11 cells; assay type: cell-based; conditions: 3 h treatment, cMYC mRNA by real-time PCR
Description: MV4-11 cells (CRL-9591) were plated at a density of 2.5×10^4 cells per well in 96 well U-bottom plates and treated with increasing concentrations of test compound or DMSO (0.1%) in IMDM media containing 10% FBS and penicillin/streptomycin, and incubated for 3 h at 37′C. Triplicate wells were used for each concentration. Cells were pelleted by centrifugation and harvested using the mRNA Catcher PLUS kit according to manufacturer's instructions. The eluted mRNA isolated was then used in a one-step quantitative real-time PCR reaction, using components of the RNA UltraSense™ One-Step Kit (Life Technologies) together with Applied Biosystems TaqMan® primer-probes for cMYC and Cyclophilin. Real-time PCR plates were run on a ViiA™7 real time PCR machine (Applied Biosystems), data was analyzed, normalizing the Ct values for cMYC to an internal control, prior to determining the fold expression of each sample, relative to the control.

[2] = target: Brd4 bromodomain 1 (BRD4(1)) (Homo sapiens, UniProt O60885); experiment: Inhibition of tetra-acetylated histone H4 binding to Brd4 bromodomain 1, measured by FRET (HTRF); design: made in house; host or cells: E. coli BL21(DE3); conditions: 2 h at room temperature
Description: Proteins were cloned and overexpressed with a N-terminal 6×His tag, then purified by nickel affinity followed by size exclusion chromatography. Briefly, E. coli BL21(DE3) cells were transformed with a recombinant expression vector encoding N-terminally Nickel affinity tagged bromodomains from Brd2, Brd3, Brd4. Cell cultures were incubated at 37° C. with shaking to the appropriate density and induced overnight with IPTG. The supernatant of lysed cells was loaded onto Ni-IDA column for purification. Eluted protein was pooled, concentrated and further purified by size exclusion chromatography. Fractions representing monomeric protein were pooled, concentrated, aliquoted, and frozen at −80° C. for use in subsequent experiments.
Binding of tetra-acetylated histone H4 and BET bromodomains was confirmed by a Homogenous Time Resolved Fluorescence Resonance Energy Transfer (HTRF®) method. N-terminally His-tagged bromodomains (200 nM) and biotinylated tetra-acetylated histone H4 peptide (25-50 nM, Millipore) were incubated in the presence of Europium Cryptate-labeled streptavidin (Cisbio Cat. #610SAKLB) and XL665-labeled monoclonal anti-His antibody (Cisbio Cat. #61HISXLB) in a white 96 well microtiter plate (Greiner). For inhibition assays, serially diluted test compound was added to these reactions in a 0.2% final concentration of DMSO. Duplicate wells were used for each concentration tested. Final buffer concentrations were 30 mM HEPES pH 7.4, 30 mM NaCl, 0.3 mM CHAPS, 20 mM phosphate pH 7.0, 320 mM KF, 0.08% BSA. After a 2 h incubation at room temperature, fluorescence was measured at 665 and 620 nm with a SynergyH4 plate reader (Biotek). The binding inhibitory activity was shown by a decrease in 665 nm relative to 620 nm fluorescence. IC50 values were determined from a dose response curve.

Human AML MV-4-11 cells = experiment: Inhibition of cell proliferation in MV4-11 cells (CellTiter Aqueous One); assay type: cell-based; conditions: for pIC50: MV4-11, 72 h; for Cell Proliferation activity: 72 h
Description: MV4-11 cells (CRL-9591) were plated at a density of 5×10^4 cells per well in 96 well flat bottom plates and treated with increasing concentrations of test compound or DMSO (0.1%) in IMDM media containing 10% FBS and penicillin/streptomycin. Triplicate wells were used for each concentration and a well containing only media was used as a control. Plates were incubated at 37° C., 5% CO2 for 72 h before adding 20 µL of the CellTiter Aqueous One Solution (Promega) to each well and incubated at 37° C., 5% CO2 for an additional 3-4 h. The absorbance was read at 490 nm in a spectrophotometer and the percentage of cell titer relative to DMSO-treated cells was calculated after correcting for background by subtracting the blank well's signal. IC50 values were calculated using the GraphPad Prism software.

SMILES | pIC50 [1] | pIC50 [2] | pIC50 (Human AML MV-4-11 cells) | Cell Proliferation activity (Human AML MV-4-11 cells)
Cc1noc(C)c1-c1cc(-c2cnn(C)c2)c2nc[nH]c2c1 [Example Compound 29, 3,5-dimethyl-4-(4-(1-methyl-1H-pyrazol-4-yl)-1H-benzo[d]imidazol-6-yl)isoxazole] | 5.52 to 6.52 | ≥ 6.52 | 4.52 to 5.52 | 
Cc1noc(C)c1CNc1cc(-c2c(C)noc2C)cc2[nH]cnc12 [Example Compound 39, 6-(3,5-dimethyl-isoxazol-4-yl)-N-((3,5-dimethyl-isoxazol-4-yl)methyl)-1H-benzo[d] imidazol-4-amine] | 5.52 to 6.52 | ≥ 6.52 | 5.52 to 6.52 | 
Cc1noc(C)c1-c1cc(Nc2ccc(Cl)cc2)c2nc[nH]c2c1 [Example Compound 40, N-(4-chlorophenyl)-6-(3,5-dimethyl-isoxazol-4-yl)-1H-benzo[d] imidazol-4-amine] |  | ≥ 6.52 | 4.52 to 5.52 | 
Cc1noc(C)c1-c1cc(NCc2ccccn2)c2nc[nH]c2c1 [Example Compound 47, 6-(3,5-dimethyl-isoxazol-4-yl)-N-(pyridin-2-ylmethyl)-1H-benzo[d] imidazol-4-amine] | 5.52 to 6.52 | ≥ 6.52 | 5.52 to 6.52 | 
Cc1noc(C)c1-c1cc(-c2ccc[nH]c2=O)c2nc[nH]c2c1 [Example Compound 56, 3-(6-(3,5-dimethyl-isoxazol-4-yl)-1H-benzo[d]imidazol-4-yl)pyridin-2(1H)-one] |  | 5.52 to 6.52 |  | Not active
Cc1noc(C)c1-c1cc(-c2c(C)noc2C)c2nn[nH]c2c1 [Example Compound 95, 4,4′-(1H-benzo[d][1,2,3]triazole-4,6-diyl)bis(3,5-dimethylisoxazole)] |  | 5.52 to 6.52 |  | Not active
Cc1nc2c(-c3ccc4c(c3)OCO4)cc(-c3c(C)noc3C)cc2[nH]1 [Example Compound 103, 4-(4-(benzo[d] [1,3]dioxol-5-yl)-2-methyl-1H-benzo[d]imidazol-6-yl)-3,5-dimethyl isoxazole] | 5.52 to 6.52 | ≥ 6.52 | 5.52 to 6.52 | 
Cc1nc2c(-c3cncc(F)c3C)cc(-c3c(C)noc3C)cc2[nH]1 [Example Compound 125, 4-(4-(5-fluoro-4-methyl-pyridin-3-yl)-2-methyl-1H-benzo[d]imidazol-6-yl)-3,5-dimethyl isoxazole] | 5.52 to 6.52 | ≥ 6.52 | 5.52 to 6.52 | 
Cc1nc2c(-c3cccc(C(N)=O)c3C)cc(-c3c(C)noc3C)cc2[nH]1 [Example Compound 126, 3-(6-(3,5-dimethylisoxazol-4-yl)-2-methyl-1H-benzo[d]imidazol-4-yl)-2-methylbenzamide] | ≥ 6.52 | ≥ 6.52 | 5.52 to 6.52 | 
CSc1nc2c(-c3c(C)nn(C)c3C)cc(-c3c(C)noc3C)cc2n1C [Example Compound 188, 3,5-dimethyl-4-(1-methyl-2-(methylthio)-4-(1,3,5-trimethyl-1H-pyrazol-4-yl)-1H-benzo[d]imidazol-6-yl)isoxazole] | 5.52 to 6.52 | 5.52 to 6.52 | 5.52 to 6.52 | 
Cc1ccc(C(N)=O)cc1-c1cc(-c2c(C)noc2C)cc2[nH]c(N3CCOCC3)nc12 [Example Compound 197, 3-(6-(3,5-dimethyl-isoxazol-4-yl)-2-morpholino-1H-benzo[d]imidazol-4-yl)-4-methyl benzamide] | 5.52 to 6.52 | ≥ 6.52 | 5.52 to 6.52 | 
Cc1ccc(C#N)cc1-c1cc(-c2c(C)noc2C)cc2[nH]c(NC3CCOCC3)nc12 [Example Compound 198, 3-(6-(3,5-dimethyl-isoxazol-4-yl)-2-((tetrahydro-2H-pyran-4-yl)amino)-1H-benzo[d]imidazol-4-yl)-4-methyl benzonitrile] | ≥ 6.52 | ≥ 6.52 | ≥ 6.52 | 
Cc1ccc(C(N)=O)cc1-c1cc(-c2c(C)noc2C)cc2[nH]c(NC3CCOCC3)nc12 [Example Compound 200, 3-(6-(3,5-dimethyl-isoxazol-4-yl)-2-((tetrahydro-2H-pyran-4-yl)amino)-1H-benzo[d]imidazol-4-yl)-4-methyl benzamide] | ≥ 6.52 | ≥ 6.52 | ≥ 6.52 | 
Cc1ccc(C(N)=O)cc1-c1cc(-c2c(C)noc2C)cc2[nH]c(NCc3ccccc3)nc12 [Example Compound 220, 3-(2-(benzyl-amino)-6-(3,5-dimethylisoxazol-4-yl)-1H-benzo[d]imidazol-4-yl)-4-methyl-benzamide] |  | ≥ 6.52 |  | 
Cc1noc(C)c1-c1cc(-c2c(C)noc2C)c2nc(NC3CCN(C)CC3)[nH]c2c1 [Example Compound 232, 4,6-bis(3,5-dimethyl-isoxazol-4-yl)-N-(1-methyl-piperidin-4-yl)-1H-benzo[d] imidazol-2-amine] |  | ≥ 6.52 | 5.52 to 6.52 | 

The next lines start with results.

pIC50 [1] | pIC50 [2] | pIC50 (Human AML MV-4-11 cells) | SMILES | Cell Proliferation activity (Human AML MV-4-11 cells)
≥ 6.52 | ≥ 6.52 | 5.52 to 6.52 | CCNc1nc2c(-c3cccnc3C)cc(-c3c(C)noc3C)cc2[nH]1 [Example Compound 100, 6-(3,5-dimethylisoxazol-4-yl)-N-ethyl-4-(2-methylpyridin-3-yl)-1H-benzo[d]imidazol-2-amine] | 
≥ 6.52 | ≥ 6.52 | ≥ 6.52 | Cc1noc(C)c1-c1cc(-c2c(C)nn(C)c2C)c2nc(N3CCOCC3)[nH]c2c1 [Example Compound 184, 4-(6-(3,5-dimethyl-isoxazol-4-yl)-4-(1,3,5-trimethyl-1H-pyrazol-4-yl)-1H-benzo[d]imidazol-2-yl)morpholine] | 
5.52 to 6.52 | ≥ 6.52 | 5.52 to 6.52 | Cc1noc(C)c1-c1cc(-c2c(C)nn(C)c2C)c2nc(NC3CCN(C)CC3)[nH]c2c1 [Example Compound 185, 6-(3,5-dimethyl-isoxazol-4-yl)-N-(1-methyl-piperidin-4-yl)-4-(1,3,5-trimethyl-1H-pyrazol-4-yl)-1H-benzo[d] imidazol-2-amine] | 
≥ 6.52 | ≥ 6.52 | ≥ 6.52 | CSc1nc2c(-c3c(C)nn(C)c3C)cc(-c3c(C)noc3C)cc2[nH]1 [Example Compound 187, 3,5-dimethyl-4-(2-(methylthio)-4-(1,3,5-trimethyl-1H-pyrazol-4-yl)-1H-benzo[d]imidazol-6-yl)isoxazole] | 
5.52 to 6.52 | ≥ 6.52 | ≥ 6.52 | Cc1noc(C)c1-c1cc(-c2c(C)nn(C)c2C)c2nc(NC3CCOCC3)[nH]c2c1 [Example Compound 190, 6-(3,5-dimethyl-isoxazol-4-yl)-N-(tetrahydro-2H-pyran-4-yl)-4-(1,3,5-trimethyl-1H-pyrazol-4-yl)-1H-benzo[d] imidazol-2-amine] | 
 | ≥ 6.52 |  | Cc1ccc(C(N)=O)cc1-c1cc(-c2c(C)noc2C)cc2[nH]c(NCc3cccnc3)nc12 [Example Compound 219, 3-(6-(3,5-dimethyl-isoxazol-4-yl)-2-((pyridin-3-ylmethyl)amino)-1H-benzo[d]imidazol-4-yl)-4-methyl-benzamide] | 
 | ≥ 6.52 |  | Cc1noc(C)c1-c1cc(-c2c(C)nn(C)c2C)c2nc(NCc3cccnc3)[nH]c2c1 [Example Compound 221, 6-(3,5-dimethyl-isoxazol-4-yl)-N-(pyridin-3-ylmethyl)-4-(1,3,5-trimethyl-1H-pyrazol-4-yl)-1H-benzo[d] imidazol-2-amine] | 
